The record followed here is ChEMBL document CHEMBL1154415, “Population pharmacokinetics and pharmacodynamics of continuous versus short-term infusion of imipenem-cilastatin in critically ill patients in a randomized, controlled trial” (Antimicrob Agents Chemother, 2007).

Usually clearance stands for a measure of how efficiently the substance is removed, as volume per time.

Each structure is given as a SMILES string.

The species named for data set [1] is Homo sapiens. Description: Toxicity in nosocomial pneumonia patient assessed as induction of seizures in presence of cilastin. The data set is classed as organism-based. Particulars: in vivo.
Data set [2] relates to Serum. The experiment in a line: Protein binding in human serum by ultrafiltration technique in presence of cilastatin. It is filed as ADME, cell-free.
A short description of data set [3]: Plasma concentration in nosocomial pneumonia patient at loading dose of 1 g and maintenance dose of 2 g administered daily for 3 days as continuous infusion measured after 72 hrs in presence of cilastatin. It is filed as ADME, organism-based. Particulars: human, iv.
Data set [4] is described as follows: Total clearance in nosocomial pneumonia patient at 1 g administered every 8 hrs for 3 days as shot-term iv infusion for 40 mins or at a loading dose of 1 g and maintenance dose of 2 g administered daily for 3 days as continuous iv infusion presence of cilastatin maintenance dose administered as continuous fusion at 8 hrs interval over 72 hrs in presence of cilastatin. The data set is classed as ADME, organism-based. Particulars: human, in vivo.

For the compound `C[C@@H](O)[C@H]1C(=O)N2C(C(=O)O)=C(SCCN=CN)C[C@H]12` [IMIPENEM ANHYDROUS], the Activity result in data set [1] is on record as “Non-toxic”; in data set [2], 20%. Besides, in data set [3], the concentration at 72 h was found to be 8650 ng/mL. In addition, in data set [4], the clearance is 205 mL/min.
